Assay results reported in patent US5401749A, “9-amino-1,4ethano-1,2,3,4-tetrahydroacridine and related compounds” (Hoechst-Roussel Pharmaceuticals Inc., priority 1988, dated 1995).
Where two headings read alike, the source gives them in different places.

Columns and labels:
[1] = test system: Scopolamine Induced Memory Deficit; assay: Dark Avoidance Assay (reversal of scopolamine induced memory deficit); format: in vivo; details: mice, s.c., tested again after 24 hours
Description: This utility can also be ascertained by determining the ability of these compounds to restore cholinergically deficient memory in the Dark Avoidance Assay. In this assay mice are tested for their ability to remember an unpleasant stimulus for a period of 24 hours. A mouse is placed in a chamber that contains a dark compartment; a strong incadescent light drives it to the dark compartment, where an electric shock is administered through metal plates on the floor. The animal is removed from the testing apparatus and tested again, 24 hours later, for the ability to remember the electric shock.
If scopolamine, an anticholinergic that is known to cause memory impairment, is administered before an animal's initial exposure to the test chamber, the animal re-enters the dark compartment shortly after being placed in the test chamber 24 hours later. This effect of scopolamine is blocked by an active test compound, resulting in a greater interval before re-entry into the dark compartment.
The test results are expressed as the percent of a group of animals in which the effect of scopolamine is blocked, as manifested by an increased interval between being placed in the test chamber and re-entering the dark compartment. Results of Dark Avoidance Assay for some of the compounds of this invention are presented in Table 2 along with a result for a reference compound.

Acetylcholinesterase = Acetylcholinesterase (Homo sapiens, UniProt P22303); assay: Acetylcholinesterase Inhibition Assay (photometric method of Ellman et al.); format: biochemical
[2] = photometric method of Ellman et al., read-out: Acetylcholinesterase Inhibition IC50

Acetylcholinesterase, sequence (P22303 32-614): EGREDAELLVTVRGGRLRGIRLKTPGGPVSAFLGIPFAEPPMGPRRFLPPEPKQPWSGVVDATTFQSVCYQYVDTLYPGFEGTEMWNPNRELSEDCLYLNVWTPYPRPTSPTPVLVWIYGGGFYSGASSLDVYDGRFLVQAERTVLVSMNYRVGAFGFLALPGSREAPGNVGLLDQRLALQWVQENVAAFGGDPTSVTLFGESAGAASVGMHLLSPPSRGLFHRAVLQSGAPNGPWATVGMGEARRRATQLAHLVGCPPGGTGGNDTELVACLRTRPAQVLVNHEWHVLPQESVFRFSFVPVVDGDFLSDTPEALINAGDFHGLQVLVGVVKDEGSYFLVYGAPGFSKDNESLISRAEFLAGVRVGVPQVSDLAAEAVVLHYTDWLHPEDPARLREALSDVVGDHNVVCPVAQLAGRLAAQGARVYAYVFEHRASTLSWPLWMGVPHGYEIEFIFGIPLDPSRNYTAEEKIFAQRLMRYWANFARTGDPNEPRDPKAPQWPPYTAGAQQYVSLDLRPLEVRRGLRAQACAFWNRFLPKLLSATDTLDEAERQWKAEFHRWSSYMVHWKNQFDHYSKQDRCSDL

SMILES | IC50 (Acetylcholinesterase) | IC50 (Acetylcholinesterase; [2]) | other results
Nc1c2c(nc3cc(C(F)(F)F)ccc13)C1CCC2C1 (centres unmarked) [9-Amino-1,4-methano-1,2,3,4-tetrahydro-6-trifluoromethylacridine] | 4 µM | – | % of Animals with Scopolamine Induced Memory Deficit Reversal ([1]; 0.16 mg/kg of body weight): 20%
FC(F)(F)c1ccc2c(NCc3ccccc3)c3c(nc2c1)C1CCC3C1 (centres unmarked) [9-Benzylamino-1,4-methano-1,2,3,4-tetrahydro-6-trifluoromethylacridine] | – | > 1000 µM | –
c1ccc(Nc2c3c(nc4ccccc24)C2CCC3C2)cc1 (centres unmarked) [9-Phenylamino-1,4-methano-1,2,3,4-tetrahydroacridine] | > 1000 µM | – | % of Animals with Scopolamine Induced Memory Deficit Reversal ([1]; 0.16 mg/kg of body weight): 20%
Nc1c2c(nc3ccccc13)C1CCC2CC1 [9-Amino-1,4-ethano-1,2,3,4-tetrahydroacridine] | – | 6.6 µM | –
c1ccc(CNc2c3c(nc4ccccc24)C2CCC3C2)cc1 (centres unmarked) [9-Benzylamino-1,4-methano-1,2,3,4-tetrahydroacridine] | – | > 1000 µM | –
c1ccc(CNc2c3c(nc4ccccc24)C2CCC3CC2)cc1 [9-Benzylamino-1,4-ethano-1,2,3,4-tetrahydroacridine] | – | 78 µM | –
Nc1c2c(nc3cc(F)ccc13)C1CCC2C1 (centres unmarked) [9-Amino-6-fluoro-1,4-methano-1,2,3,4-tetrahydroacridine] | 0.08 µM | – | % of Animals with Scopolamine Induced Memory Deficit Reversal ([1]; 0.63 mg/kg of body weight): 9%
C1=CC2CCC1c1nc3ccccc3c(NCc3ccccc3)c12 (centres unmarked) [9-Benzylamino-1,4-dihydro-1,4-ethanoacridine] | – | 52 µM | –
Nc1c2c(nc3ccccc13)C1C=CC2CC1 (centres unmarked) [9-Amino-1,4-dihydro-1,4-ethanoacridine] | – | 1.4 µM | –
Nc1c2c(nc3ccccc13)C1CCC2C1 (centres unmarked) [9-Amino-1,4-methano-1,2,3,4-tetrahydroacridine] | – | – | % of Animals with Scopolamine Induced Memory Deficit Reversal ([1]; 2.5 mg/kg of body weight): 40%
Cc1ccc2c(NCc3ccccc3)c3c(nc2c1)C1CCC3C1 (centres unmarked) [9-Benzylamino-1,4-methano-6-methyl-1,2,3,4-tetrahydroacridine] | – | 31 µM | –
Cc1ccc2c(N)c3c(nc2c1)C1CCC3C1 (centres unmarked) [9-Amino-1,4-methano-6-methyl-1,2,3,4-tetrahydroacridine] | 0.3 µM | – | % of Animals with Scopolamine Induced Memory Deficit Reversal ([1]; 2.5 mg/kg of body weight): 36%
CNC(=O)Oc1ccc2c(c1)[C@]1(C)CCN(C)[C@@H]1N2C [Physostigmine, reference compound] | – | – | % of Animals with Scopolamine Induced Memory Deficit Reversal ([1]; 0.31 mg/kg of body weight): 20%
